Key:
[1] = test system: Surinam grass (BRADC); test: Test 11 field trial, preemergence; type: in vivo, Brachiaria decumbens; design: scale not given here
Source text: (§1) Corn seeds (hybrid ‘Pioneer 3041’) were planted in mid spring season, 5 cm deep in a clay soil having 2.6% organic matter and a pH of 5.6. Plots were 8 m long by 1.5 m wide with rows spaced 80 cm apart. Seeds were spaced 15 cm apart within the rows. The field was managed using conventional tillage practices. […] Treatments consisted of Compound 2 or
(§2) Goosegrass was not evaluated 16 or 91 days after application.

[2] = test system: Brazilian crabgrass (DIGHO); test: Test 11 field trial, preemergence; type: in vivo, Digitaria horizontalis; design: scale not given here
Source text: as §1, §2

[3] = test system: redroot pigweed (AMARE); test: Test 6 field trial, postemergence; type: in vivo, Amaranthus retroflexus; details: 1120 g a.i./ha
Source text: (§3) Corn seeds (hybrid ‘Pioneer 35Y62’) were planted in mid spring season, 3.8 cm deep in a silt loam soil having 4% organic matter and a pH of 5.8. Plots were 10.7 m long by 1.5 m wide with rows spaced 76 cm apart. Seeds were spaced 18 cm apart within the rows. The field was managed using conventional tillage practices. […] All treatments included a surfactant except glufosinate treatments, both alone and in combination. […] Results are summarized in Table 6 and are the means of the three replicates.

[4] = test system: goosegrass (ELEIN); test: Test 11 field trial, preemergence; type: in vivo, Eleusine indica
Source text: as §1, §2

[5] = test system: corn (ZEAMD); test: Test 8 field trial, preemergence; type: in vivo, Zea mays ssp. indentata; details: g a.i./ha: Cpd 2 100, Atrazine 1680, S-Metolachlor 1870
Source text: (§4) Corn seeds (hybrid ‘Pioneer 31G96’) were planted in mid spring season, 3.8 cm deep in a clay loam soil having 2% organic matter and a pH of 6.6. Plots were 6.1 m long by 3.0 m wide with rows spaced 76 cm apart. Seeds were spaced 15 cm apart within the rows. The field was managed using conventional tillage practices. […] A few of the weed species could not be evaluated at every timing. […] Results are the means of the three replicates.

[6] = test system: Ipomoea grandiflora (IPOGF); test: Test 11 field trial, preemergence; type: in vivo
Source text: as §1, §2

[7] = test system: corn (ZEAMD); test: Test 5 field trial, postemergence; type: in vivo, Zea mays ssp. indentata; details: atrazine 1120, glufosinate 470 or glyphosate 1120 g a.i./ha alone
Source text: (§5) Corn seeds (hybrid ‘Pioneer 38H69’) were planted in mid spring season, 5.1 cm deep in a silty clay loam soil having 3% organic matter and a pH of 6.5. Plots were 9.1 m long by 3.0 m wide with rows spaced 76 cm apart. The field was managed using conventional tillage practices. […] All treatments included a surfactant except glufosinate treatments, both alone and in combination. […] Results are summarized in Table 5 and are the means of the three replicates.

[8] = test system: redroot pigweed (AMARE); test: Test 8 field trial, preemergence; type: in vivo, Amaranthus retroflexus; details: 56 DAA; g a.i./ha: Cpd 2 100, Atrazine 1680, S-Metolachlor 1870
Source text: as §4

[9] = test system: common cocklebur (XANST); test: Test 10 field trial, preemergence; type: in vivo, Xanthium strumarium ssp. strumarium; details: 28 DAA; g a.i./ha: Cpd 2 100, Atrazine 1680, S-Metolachlor 1870
Source text: Corn seeds (hybrid ‘Pioneer 33P65 RR’) were planted in mid spring season, 2.5 cm deep in a silt loam soil. Plots were 9.1 m long by 3.0 m wide with rows spaced 76 cm apart. The field was managed using conventional tillage practices. […] Results are the means of the three replicates.

[10] = test system: field pennycress (THLAR); test: Test 1 field trial, preemergence; type: in vivo, Thlaspi arvense; details: 28 DAA; g a.i./ha: Atrazine 1680; S-Metolachlor 1870
Source text: Corn seeds (hybrid ‘Pioneer 34N43’) were planted in mid spring season, 3.8 cm deep in a silt loam soil having 4.6% organic matter and a pH of 6. Plots were 10.7 m long by 1.5 m wide with rows spaced 76 cm apart. Seeds were spaced 18 cm apart within the rows. The field was managed using conventional tillage practices. […] Results are summarized in Table 1 and are the means of the three replicates. […] Colby's Equation (Colby, S. R. “Calculating Synergistic and Antagonistic Responses of Herbicide Combinations,” Weeds, 15(1), pp 20-22 (1967)) calculates the expected additive effect of herbicidal mixtures, and for two active ingredients is of the form:
Pa+b=Pa+Pb−(PaPb/100) • wherein Pa+b is the percentage effect of the mixture expected from additive contribution of the individual components, • Pa is the observed percentage effect of the first active ingredient at the same use rate as in the mixture, and • Pb is the observed percentage effect of the second active ingredient at the same use rate as in the mixture.

[11] = test system: corn (ZEAMD); test: Test 6 field trial, postemergence; type: in vivo, Zea mays ssp. indentata; details: 1120 g a.i./ha
Source text: as §3

[12] = test system: yellow foxtail (SETLU); test: Test 5 field trial, postemergence; type: in vivo, Setaria glauca; details: atrazine 1120, glufosinate 470 or glyphosate 1120 g a.i./ha alone
Source text: as §5

[13] = test system: common ragweed (AMBEL); test: Test 5 field trial, postemergence; type: in vivo, Ambrosia artemisiifolia; details: atrazine 1120, glufosinate 470 or glyphosate 1120 g a.i./ha alone
Source text: as §5

[14] = 16 DAA, atrazine 1500 or metolachlor 2500 g a.i./ha alone
[15] = 30 DAA, atrazine 1500 or metolachlor 2500 g a.i./ha alone
[16] = 44 DAA, atrazine 1500 or metolachlor 2500 g a.i./ha alone
[17] = 62 DAA, atrazine 1500 or metolachlor 2500 g a.i./ha alone
[18] = 91 DAA, atrazine 1500 or metolachlor 2500 g a.i./ha alone
[19] = 62 DAA, 1500 g a.i./ha, scale 0 to 100
[20] = 16 DAA, Cpd 2/Cpd 1 at 62 g a.i./ha, alone or + atrazine 1500 or metolachlor 2500
[21] = 16 DAA, Cpd 2/Cpd 1 at 125 g a.i./ha, alone or + atrazine 1500 or metolachlor 2500
[22] = 30 DAA, Cpd 2/Cpd 1 at 62 g a.i./ha, alone or + atrazine 1500 or metolachlor 2500
[23] = 30 DAA, Cpd 2/Cpd 1 at 125 g a.i./ha, alone or + atrazine 1500 or metolachlor 2500
[24] = 44 DAA, Cpd 2/Cpd 1 at 62 g a.i./ha, alone or + atrazine 1500 or metolachlor 2500
[25] = 44 DAA, Cpd 2/Cpd 1 at 125 g a.i./ha, alone or + atrazine 1500 or metolachlor 2500
[26] = 62 DAA, Cpd 2/Cpd 1 at 62 g a.i./ha, alone or + atrazine 1500 or metolachlor 2500
[27] = 62 DAA, Cpd 2/Cpd 1 at 125 g a.i./ha, alone or + atrazine 1500 or metolachlor 2500
[28] = 91 DAA, Cpd 2/Cpd 1 at 62 g a.i./ha, alone or + atrazine 1500 or metolachlor 2500
[29] = 91 DAA, Cpd 2/Cpd 1 at 125 g a.i./ha, alone or + atrazine 1500 or metolachlor 2500
[30] = 44 DAA, 62 g a.i./ha, scale 0 to 100
[31] = 44 DAA, 125 g a.i./ha, scale 0 to 100
[32] = 62 DAA, 62 g a.i./ha, scale 0 to 100
[33] = 62 DAA, 125 g a.i./ha, scale 0 to 100

## CCNc1nc(Cl)nc(NC(C)C)n1 [Atrazine, atrazine, reference compound]
[1]; [14]
  BRADC Obs: 40
[1]; [15]
  BRADC Obs: 20
[1]; [16]
  BRADC Obs: 0
[1]; [17]
  BRADC Obs: 0
[1]; [18]
  BRADC Obs: 0
[2]; [14]
  DIGHO Obs: 60
[2]; [15]
  DIGHO Obs: 40
[2]; [16]
  DIGHO Obs: 20
[2]; [17]
  DIGHO Obs: 0
[2]; [18]
  DIGHO Obs: 0
[3]; 14 DAA
  AMARE Obs: 100%
[3]; 28 DAA
  AMARE Obs: 100%
[4]; [15]
  ELEIN Obs: 95
[4]; [16]
  ELEIN Obs: 100
[4]; [19]
  ELEIN Obs: 100
[5]; 19 DAA
  ZEAMD Obs: 5%
[5]; 29 DAA
  ZEAMD Obs: 2%
[5]; 56 DAA
  ZEAMD Obs: 3%
[6]; [14]
  IPOGF Obs: 97
[6]; [15]
  IPOGF Obs: 97
[6]; [16]
  IPOGF Obs: 70
[6]; [19]
  IPOGF Obs: 50
[6]; 91 DAA, 1500 g a.i./ha, scale 0 to 100
  IPOGF Obs: 40
[7]; 16 DAA
  ZEAMD Obs: 0%
[7]; 31 DAA
  ZEAMD Obs: 0%
[8]
  AMARE Obs: 100%
[9]
  XANST Obs: 40%
[10]
  THLAR Obs: 93
[11]; 14 DAA
  ZEAMD Obs: 0%
[11]; 28 DAA
  ZEAMD Obs: 0%
[12]; 16 DAA
  SETLU Obs: 0%
[12]; 31 DAA
  SETLU Obs: 0%
[13]; 16 DAA
  AMBEL Obs: 45%
[13]; 31 DAA
  AMBEL Obs: 30%

## Nc1nc(C2CC2)nc(C(=O)O)c1Cl [Compound 1, 6-amino-5-chloro-2-cyclopropyl-4-pyrimidinecarboxylic acid]
[1]; [20]
  BRADC Obs: 20
[1]; [21]
  BRADC Obs: 40
[1]; [22]
  BRADC Obs: 20
[1]; [23]
  BRADC Obs: 50
[1]; [24]
  BRADC Obs: 0
[1]; [25]
  BRADC Obs: 40
[1]; [26]
  BRADC Obs: 0
[1]; [27]
  BRADC Obs: 0
[1]; [28]
  BRADC Obs: 0
[1]; [29]
  BRADC Obs: 0
[2]; [20]
  DIGHO Obs: 0
[2]; [21]
  DIGHO Obs: 0
[2]; [22]
  DIGHO Obs: 0
[2]; [23]
  DIGHO Obs: 20
[2]; [24]
  DIGHO Obs: 0
[2]; [25]
  DIGHO Obs: 20
[2]; [26]
  DIGHO Obs: 0
[2]; [27]
  DIGHO Obs: 0
[2]; [28]
  DIGHO Obs: 0
[2]; [29]
  DIGHO Obs: 0
[4]; [22]
  ELEIN Obs: 0
[4]; [23]
  ELEIN Obs: 20
[4]; [30]
  ELEIN Obs: 0
[4]; [31]
  ELEIN Obs: 0
[4]; [32]
  ELEIN Obs: 0
[4]; [33]
  ELEIN Obs: 0
[6]; [20]
  IPOGF Obs: 20
[6]; [21]
  IPOGF Obs: 40
[6]; [22]
  IPOGF Obs: 40
[6]; [23]
  IPOGF Obs: 80
[6]; [30]
  IPOGF Obs: 60
[6]; [31]
  IPOGF Obs: 80
[6]; [32]
  IPOGF Obs: 0
[6]; [33]
  IPOGF Obs: 75
[6]; 91 DAA, 62 g a.i./ha, scale 0 to 100
  IPOGF Obs: 0
[6]; 91 DAA, 125 g a.i./ha, scale 0 to 100
  IPOGF Obs: 60

## O=C(O)CNCP(=O)(O)O [Glyphosate]
[3]; 14 DAA
  AMARE Obs: 100%
[3]; 28 DAA
  AMARE Obs: 100%
[7]; 16 DAA
  ZEAMD Obs: 0%
[7]; 31 DAA
  ZEAMD Obs: 0%
[11]; 14 DAA
  ZEAMD Obs: 0%
[11]; 28 DAA
  ZEAMD Obs: 0%
[12]; 16 DAA
  SETLU Obs: 100%
[12]; 31 DAA
  SETLU Obs: 98%
[13]; 16 DAA
  AMBEL Obs: 84%
[13]; 31 DAA
  AMBEL Obs: 100%

## CCc1cccc(C)c1N(C(=O)CCl)[C@@H](C)COC [S-Metolachlor, S-metolachlor, reference compound]
[5]; 19 DAA
  ZEAMD Obs: 0%
[5]; 29 DAA
  ZEAMD Obs: 3%
[5]; 56 DAA
  ZEAMD Obs: 5%
[8]
  AMARE Obs: 100%
[9]
  XANST Obs: 30%
[10]
  THLAR Obs: 58
